Test results from PubChem BioAssay (NCI).
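Tested at 5 concentrations; 48 h exposure; 96-well plates; endpoints linearly interpolated, else capped at highest concentration. At the TGI there is no net growth.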

Experiments:
Assay in all cases: NCI tumour cell line growth inhibition, 48 h
P388/ADR leukemia = system: P388/ADR leukemia
SN12K1 renal = system: SN12K1 renal
DMS 114 small cell lung = system: DMS 114 small cell lung
XF 498 CNS = system: XF 498 CNS
KM20L2 colon = system: KM20L2 colon
P388 leukemia = system: P388 leukemia
HOP-18 NSCLC = system: HOP-18 NSCLC
DMS 273 small cell lung = system: DMS 273 small cell lung
SNB-78 CNS = system: SNB-78 CNS
RXF-631 renal = system: RXF-631 renal

## CNC=O
P388/ADR leukemia
  TGI: > 10000 µM
SN12K1 renal
  TGI: > 10000 µM
DMS 114 small cell lung
  TGI: > 10000 µM
XF 498 CNS
  TGI: > 10000 µM
KM20L2 colon
  TGI: > 10000 µM
P388 leukemia
  TGI: > 5620 µM
HOP-18 NSCLC
  TGI: > 10000 µM
DMS 273 small cell lung
  TGI: > 10000 µM
SNB-78 CNS
  TGI: > 10000 µM

## O=C(c1ccc(Cl)cc1)N(C(=S)N1CCN(c2ccccc2)CC1)c1ccccc1
KM20L2 colon
  TGI: > 100 µM
HOP-18 NSCLC
  TGI: > 100 µM
DMS 273 small cell lung
  TGI: > 100 µM
SNB-78 CNS
  TGI: > 100 µM

## CCCN(CCC)C(=O)Cc1c2n(c3ccccc13)Cc1ccccc1-2
DMS 114 small cell lung
  TGI: > 100 µM
XF 498 CNS
  TGI: > 100 µM
KM20L2 colon
  TGI: > 100 µM
HOP-18 NSCLC
  TGI: > 100 µM
DMS 273 small cell lung
  TGI: > 100 µM
SNB-78 CNS
  TGI: > 100 µM

## C/C(=C1/N=C(c2cc([N+](=O)[O-])ccc2Cl)N(C2=CC=C(Cl)CC2)C1=O)c1cc2ccccc2oc1=O
RXF-631 renal
  TGI: > 100 µM
DMS 114 small cell lung
  TGI: > 100 µM
KM20L2 colon
  TGI: > 100 µM
HOP-18 NSCLC
  TGI: > 100 µM
SNB-78 CNS
  TGI: > 100 µM

## CCCC(=O)N[C@@H](Cc1cc(I)c(O)c(I)c1)C(=O)NCCCNCCCCNCCCNC(=O)[C@@H](N)CCCN=C(N)N
DMS 114 small cell lung
  TGI: > 100 µM
XF 498 CNS
  TGI: > 100 µM
KM20L2 colon
  TGI: > 100 µM
DMS 273 small cell lung
  TGI: > 100 µM

## Nc1ccccc1Sc1ccc(Cl)cc1
DMS 114 small cell lung
  TGI: 59.3 µM
KM20L2 colon
  TGI: 42.9 µM
HOP-18 NSCLC
  TGI: > 100 µM
DMS 273 small cell lung
  TGI: 72.5 µM
SNB-78 CNS
  TGI: 46.6 µM

## Cc1ccc(S(=O)(=O)OCC23CCC(C4CC42)C2CC23)cc1 (configuration not stated)
RXF-631 renal
  TGI: > 100 µM
DMS 114 small cell lung
  TGI: > 100 µM
KM20L2 colon
  TGI: > 100 µM
HOP-18 NSCLC
  TGI: > 100 µM
DMS 273 small cell lung
  TGI: > 100 µM

## CC1OC(OC2C(Oc3cc(O)c4c(=O)cc(-c5ccc(O)cc5)oc4c3)OC(CO)C(O)C2O)C(O)C(O)C1O (configuration not stated)
DMS 114 small cell lung
  TGI: > 100 µM
XF 498 CNS
  TGI: > 100 µM
KM20L2 colon
  TGI: > 100 µM
HOP-18 NSCLC
  TGI: > 100 µM
DMS 273 small cell lung
  TGI: > 100 µM
SNB-78 CNS
  TGI: > 100 µM

## CC(=O)/C=C/c1c[nH]c(=O)[nH]c1=O
P388/ADR leukemia
  TGI: 893 µM
SN12K1 renal
  TGI: 341 µM
DMS 114 small cell lung
  TGI: 585 µM
XF 498 CNS
  TGI: 151 µM
KM20L2 colon
  TGI: 508 µM
P388 leukemia
  TGI: 718 µM
DMS 273 small cell lung
  TGI: 324 µM
SNB-78 CNS
  TGI: 756 µM
